# Measured values published in US8722849B2, “Polypeptides” (Novo Nordisk A/S, priority 2011, dated 2014).
# Starred links: 1 amine or outer side, 2 acyl side, 3 side chain; linkers in the order of their positions; H or OH if unused. Positions of bridges follow the written chain, without caps; N, C: chain ends. Residues, ends and D or L forms follow the SMILES beside them. *: point of attachment. C20 diacid = O=C(O)CCCCCCCCCCCCCCCCCCC(=O)*; C18 diacid = O=C(O)CCCCCCCCCCCCCCCCC(=O)*; γGlu = O=C(O)[C@H](CCC(=O)[*:2])N[*:1]
# Experiments:
# [1] = Assay (III) ThT fibrillation assay for physical stability; format: physicochemical
# In short: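 Freshly prepared formulations, pH-adjusted, with 1 μM ThT; four or eight replicates incubated at 37 °C under 960 rpm orbital shaking. Fluorescence (ex 444/em 485 nm) read every 20 min; […]. Peptide concentration measured by RP-HPLC before and after the run.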
# [2] = target: T1, rat calcitonin (a) receptor (Rattus norvegicus, UniProt P32214); assay: Assay (II)b functional cAMP FlashPlate assay, rat calcitonin receptor; format: cell-based; settings: Table 11; read-out: CTa receptor rat EC50
# T1 construct: expressed in transfected cells; host or cells: BHK tk'ts 13
# T1 sequence (P32214 25-479 isoform P32214-2 limits assumed): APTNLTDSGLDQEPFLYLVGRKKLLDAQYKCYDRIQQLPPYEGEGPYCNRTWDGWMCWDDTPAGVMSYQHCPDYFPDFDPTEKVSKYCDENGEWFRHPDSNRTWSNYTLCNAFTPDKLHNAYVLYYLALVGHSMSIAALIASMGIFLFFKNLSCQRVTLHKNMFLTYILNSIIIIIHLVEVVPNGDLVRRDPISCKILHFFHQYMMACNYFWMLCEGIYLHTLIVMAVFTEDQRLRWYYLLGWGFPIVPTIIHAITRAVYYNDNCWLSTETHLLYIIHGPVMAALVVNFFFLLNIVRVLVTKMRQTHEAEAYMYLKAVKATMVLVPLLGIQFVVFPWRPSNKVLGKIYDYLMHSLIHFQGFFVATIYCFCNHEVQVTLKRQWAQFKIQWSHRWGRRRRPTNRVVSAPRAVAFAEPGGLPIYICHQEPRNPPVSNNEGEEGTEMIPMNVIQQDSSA
# In short: (§1)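 BHK tk'ts 13 cells transiently transfected with rat calcitonin(a) receptor, alone or with rat RAMP3 (amylin 3(a)), were stimulated 24 hours later with sample for 30 min in buffer containing IBMX. cAMP measured by competitive radioactive FlashPlate assay, scintillation read after 3 h detection incubation.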
# [3] = target: T2, rat amylin 3(a) receptor (rat calcitonin(a) receptor + rat RAMP3) (Rattus norvegicus, UniProt P32214+Q9JJ73); assay: Assay (II)b functional cAMP FlashPlate assay, rat amylin receptor; format: cell-based; settings: Table 11
# T2 construct: expressed in transfected cells; host or cells: BHK tk'ts 13
# T2 sequence (P32214 25-479 isoform P32214-2 limits assumed): T1 sequence (P32214 25-479 isoform P32214-2 limits assumed)
# T2 sequence (Q9JJ73 23-147 partner): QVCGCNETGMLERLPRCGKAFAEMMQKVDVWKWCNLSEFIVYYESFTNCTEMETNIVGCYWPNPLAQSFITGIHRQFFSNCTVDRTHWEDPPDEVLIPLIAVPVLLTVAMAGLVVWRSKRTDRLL
# In short: as §1
ThT pH 4.0 lag time ([1]; Table 8) [h],ThT pH 4.0 lag time ([1]; Table 9) [h],ThT pH 4.0 lag time ([1]; ThT fibrillation assay) [h],ThT pH 4.0 lag time (h) ([1]; ThT fibrillation assay),EC50 [2] [nM],EC50 [3] [nM],SMILES
27.9,–,27.9,27.9,0.433,0.122,"CC[C@H](C)[C@H](NC(=O)[C@@H]1CCCN1C(=O)CNC(=O)[C@H](Cc1ccccc1)NC(=O)[C@H](CC(N)=O)NC(=O)[C@H](CC(N)=O)NC(=O)[C@H](CO)NC(=O)[C@H](CO)NC(=O)[C@H](Cc1c[nH]cn1)NC(=O)[C@H](Cc1c[nH]cn1)NC(=O)[C@H](CC(C)C)NC(=O)[C@H](Cc1ccccc1)NC(=O)[C@H](CCC(=O)O)NC(=O)[C@H](C)NC(=O)[C@H](CC(C)C)NC(=O)[C@H](CCCNC(=N)N)NC(=O)[C@H](CCC(N)=O)NC(=O)[C@@H](NC(=O)[C@H](C)NC(=O)[C@@H]1CSSC[C@H](NC(=O)[C@H](CCCCN)NC(=O)CC[C@H](NC(=O)CCCCCCCCCCCCCCCCC(=O)O)C(=O)O)C(=O)N[C@@H](CC(N)=O)C(=O)N[C@@H]([C@@H](C)O)C(=O)N[C@@H](C)C(=O)N[C@@H]([C@@H](C)O)C(=O)N1)[C@@H](C)O)C(=O)N[C@@H](CC(C)C)C(=O)N1CCC[C@H]1C(=O)N1CCC[C@H]1C(=O)N[C@H](C(=O)N[C@@H](CC(N)=O)C(=O)N[C@H](C(=O)NCC(=O)N[C@@H](CO)C(=O)N[C@@H](CC(N)=O)C(=O)N[C@H](C(=O)N[C@@H](Cc1ccc(O)cc1)C(N)=O)[C@@H](C)O)C(C)C)[C@@H](C)O [Example 46, N-alpha-[(S)-4-Carboxy-4-(17-carboxyheptadecanoylamino)butyryl]-[Glu14,His17]-pramlintide] ({C18 diacid-γGlu}-KCNTATCATQRLAEFLHHSSNNFGPILPPTNVGSNTY-NH2; disulfide 2-7 (inferred); C-terminus assumed)"
–,–,–,–,1.17,0.187,"CC[C@H](C)[C@H](NC(=O)[C@@H]1CCCN1C(=O)CNC(=O)[C@H](Cc1ccccc1)NC(=O)[C@H](CC(N)=O)NC(=O)[C@H](CC(N)=O)NC(=O)[C@H](CO)NC(=O)[C@H](CO)NC(=O)[C@H](Cc1c[nH]cn1)NC(=O)[C@H](Cc1c[nH]cn1)NC(=O)[C@H](CC(C)C)NC(=O)[C@H](Cc1ccccc1)NC(=O)[C@H](CCC(=O)O)NC(=O)[C@H](C)NC(=O)[C@H](CC(C)C)NC(=O)[C@H](CCCNC(=N)N)NC(=O)[C@H](CCC(N)=O)NC(=O)[C@@H](NC(=O)[C@H](C)NC(=O)[C@@H]1CSSC[C@H](NC(=O)[C@H](Cc2c[nH]cn2)NC(=O)CC[C@H](NC(=O)CCCCCCCCCCCCCCCCCCC(=O)O)C(=O)O)C(=O)N[C@@H](CC(N)=O)C(=O)N[C@@H]([C@@H](C)O)C(=O)N[C@@H](C)C(=O)N[C@@H]([C@@H](C)O)C(=O)N1)[C@@H](C)O)C(=O)N[C@@H](CC(C)C)C(=O)N1CCC[C@H]1C(=O)N1CCC[C@H]1C(=O)N[C@H](C(=O)N[C@@H](CC(N)=O)C(=O)N[C@H](C(=O)NCC(=O)N[C@@H](CO)C(=O)N[C@@H](CC(N)=O)C(=O)N[C@H](C(=O)N[C@@H](Cc1ccc(O)cc1)C(N)=O)[C@@H](C)O)C(C)C)[C@@H](C)O [Example 18, N-alpha-[(S)-4-Carboxy-4-(19-carboxynonadecanoylamino)butyryl]-[His1,Glu14,His17]-pramlintide] ({C20 diacid-γGlu}-HCNTATCATQRLAEFLHHSSNNFGPILPPTNVGSNTY-NH2; disulfide 2-7 (inferred); C-terminus assumed)"

# Continued, molecule first:
SMILES,ThT pH 4.0 lag time ([1]; Table 8) [h],ThT pH 4.0 lag time ([1]; Table 9) [h],ThT pH 4.0 lag time ([1]; ThT fibrillation assay) [h],ThT pH 4.0 lag time (h) ([1]; ThT fibrillation assay),EC50 [2] [nM],EC50 [3] [nM]
"CC[C@H](C)[C@H](NC(=O)[C@@H]1CCCN1C(=O)CNC(=O)[C@H](Cc1ccccc1)NC(=O)[C@H](CC(N)=O)NC(=O)[C@H](CC(N)=O)NC(=O)[C@H](CO)NC(=O)[C@H](CO)NC(=O)[C@H](Cc1c[nH]cn1)NC(=O)[C@H](CCCNC(=N)N)NC(=O)[C@H](CC(C)C)NC(=O)[C@H](Cc1ccccc1)NC(=O)[C@H](CCC(=O)O)NC(=O)[C@H](C)NC(=O)[C@H](CC(C)C)NC(=O)[C@H](CCCNC(=N)N)NC(=O)[C@H](CCC(N)=O)NC(=O)[C@@H](NC(=O)[C@H](C)NC(=O)[C@@H]1CSSC[C@H](NC(=O)[C@H](Cc2c[nH]cn2)NC(=O)CNC(=O)CC[C@H](NC(=O)CCCCCCCCCCCCCCCCCCC(=O)O)C(=O)O)C(=O)N[C@@H](CC(N)=O)C(=O)N[C@@H]([C@@H](C)O)C(=O)N[C@@H](C)C(=O)N[C@@H]([C@@H](C)O)C(=O)N1)[C@@H](C)O)C(=O)N[C@@H](CC(C)C)C(=O)N1CCC[C@H]1C(=O)N1CCC[C@H]1C(=O)N[C@H](C(=O)N[C@@H](CC(N)=O)C(=O)N[C@H](C(=O)NCC(=O)N[C@@H](CO)C(=O)N[C@@H](CC(N)=O)C(=O)N[C@H](C(=O)N1CCC[C@H]1C(N)=O)[C@@H](C)O)C(C)C)[C@@H](C)O [Example 89, N-alpha-[(S)-4-Carboxy-4-(19-carboxynonadecanoylamino)butyryl]-Gly-[His1,Glu14,Arg17,Pro37]-pramlintide] ({C20 diacid-γGlu}-GHCNTATCATQRLAEFLRHSSNNFGPILPPTNVGSNTP-NH2; disulfide 3-8 (inferred))",>45,>45,>45,>45,0.114,0.151
"CC[C@H](C)[C@H](NC(=O)[C@@H]1CCCN1C(=O)CNC(=O)[C@H](Cc1ccccc1)NC(=O)[C@H](CC(N)=O)NC(=O)[C@H](CC(N)=O)NC(=O)[C@H](CO)NC(=O)[C@H](CO)NC(=O)[C@H](Cc1c[nH]cn1)NC(=O)[C@H](CCCNC(=N)N)NC(=O)[C@H](CC(C)C)NC(=O)[C@H](Cc1ccccc1)NC(=O)[C@H](CCC(=O)O)NC(=O)[C@H](C)NC(=O)[C@H](CC(C)C)NC(=O)[C@H](CCCNC(=N)N)NC(=O)[C@H](CCC(N)=O)NC(=O)[C@@H](NC(=O)[C@H](C)NC(=O)[C@@H]1CSSC[C@H](NC(=O)[C@H](CCCCN)NC(=O)[C@H](CCC(=O)O)NC(=O)CC[C@H](NC(=O)CCCCCCCCCCCCCCCCCCC(=O)O)C(=O)O)C(=O)N[C@@H](CC(N)=O)C(=O)N[C@@H]([C@@H](C)O)C(=O)N[C@@H](C)C(=O)N[C@@H]([C@@H](C)O)C(=O)N1)[C@@H](C)O)C(=O)N[C@@H](CC(C)C)C(=O)N1CCC[C@H]1C(=O)N1CCC[C@H]1C(=O)N[C@H](C(=O)N[C@@H](CC(N)=O)C(=O)N[C@H](C(=O)NCC(=O)N[C@@H](CO)C(=O)N[C@@H](Cc1c[nH]cn1)C(=O)N[C@H](C(=O)N[C@@H](Cc1ccc(O)cc1)C(N)=O)[C@@H](C)O)C(C)C)[C@@H](C)O [Example 58, N-alpha-[(S)-4-Carboxy-4-(19-carboxynonadecanoylamino)butyryl]-Glu-[Glu14,Arg17,His35]-pramlintide] ({C20 diacid-γGlu}-EKCNTATCATQRLAEFLRHSSNNFGPILPPTNVGSHTY-NH2; disulfide 3-8 (inferred); C-terminus assumed)",>45,>45,>45,>45,2.23,0.063
"CC[C@H](C)[C@H](NC(=O)[C@@H]1CCCN1C(=O)CNC(=O)[C@H](Cc1ccccc1)NC(=O)[C@H](CC(N)=O)NC(=O)[C@H](CC(N)=O)NC(=O)[C@H](CO)NC(=O)[C@H](CO)NC(=O)[C@H](CCCNC(=N)N)NC(=O)[C@H](Cc1c[nH]cn1)NC(=O)[C@H](CC(C)C)NC(=O)[C@H](Cc1ccccc1)NC(=O)[C@H](CCC(=O)O)NC(=O)[C@H](C)NC(=O)[C@H](CC(C)C)NC(=O)[C@H](CCCNC(=N)N)NC(=O)[C@H](CCC(N)=O)NC(=O)[C@@H](NC(=O)[C@H](C)NC(=O)[C@@H]1CSSC[C@H](NC(=O)[C@H](CCC(=O)O)NC(=O)CC[C@H](NC(=O)CCCCCCCCCCCCCCCCCCC(=O)O)C(=O)O)C(=O)N[C@@H](CC(N)=O)C(=O)N[C@@H]([C@@H](C)O)C(=O)N[C@@H](C)C(=O)N[C@@H]([C@@H](C)O)C(=O)N1)[C@@H](C)O)C(=O)N[C@@H](CC(C)C)C(=O)N1CCC[C@H]1C(=O)N1CCC[C@H]1C(=O)N[C@H](C(=O)N[C@@H](CC(N)=O)C(=O)N[C@H](C(=O)NCC(=O)N[C@@H](CO)C(=O)N[C@@H](CC(N)=O)C(=O)N[C@H](C(=O)N1CCC[C@H]1C(N)=O)[C@@H](C)O)C(C)C)[C@@H](C)O [Example 10, N-alpha-[(S)-4-Carboxy-4-(19-carboxynonadecanoylamino)butyryl]-[Glu1,Glu14,His17,Arg18,Pro37]-pramlintide] ({C20 diacid-γGlu}-ECNTATCATQRLAEFLHRSSNNFGPILPPTNVGSNTP-NH2; disulfide 2-7)",–,–,–,–,0.806,0.374
